Experimental findings from US20260297080A1, “BICYCLIC COMPOUNDS AS CDK INHIBITORS” (BeOne Medicines I GmbH, priority 2022, published 2026) are described below.

The structures appear in SMILES notation.

The target in one assay is CDK2/Cyclin E1 (Homo sapiens, UniProt P24941). Nature of the assay: CDK2/Cyclin E1 Biochemical Assay (TR-FRET), 0.060 mM ATP. To be noted: 0.15 μM Rb (Ser780)-biotin substrate, pH7.0, 60 min preincubation, 120 min reaction, room temperature. The procedure, abridged: (§1)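 Percent inhibition was derived from the 665 nm/620 nm TR-FRET ratio after a 120-minute room-temperature reaction on 0.15 μM Rb (Ser780)-biotin, preceded by 60-minute enzyme–compound preincubation. IC50 came from four-parameter logistic fitting.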
(In general: TR-FRET usually uses a lanthanide donor and a delayed reading to cut background.)

A further assay addresses CDK1/Cyclin B1 (Homo sapiens, UniProt P06493). Nature of the assay: CDK1/Cyclin B1 Biochemical Assay (TR-FRET), 0.015 mM ATP. To be noted: 0.15 μM Rb (Ser780)-biotin substrate, pH7.0, 60 min preincubation, 120 min reaction, room temperature. The procedure, abridged: as §1

Chain of CDK1/Cyclin B1 (P06493 whole entry): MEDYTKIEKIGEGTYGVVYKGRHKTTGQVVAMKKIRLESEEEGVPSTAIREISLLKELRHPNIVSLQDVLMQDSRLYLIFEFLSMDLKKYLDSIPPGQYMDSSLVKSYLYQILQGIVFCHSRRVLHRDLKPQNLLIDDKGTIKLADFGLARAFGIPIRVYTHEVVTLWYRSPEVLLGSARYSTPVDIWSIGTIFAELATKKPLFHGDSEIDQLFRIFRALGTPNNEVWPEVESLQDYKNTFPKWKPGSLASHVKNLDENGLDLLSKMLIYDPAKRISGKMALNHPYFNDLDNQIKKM
Chain of CDK1/Cyclin B1 (P14635 whole entry partner): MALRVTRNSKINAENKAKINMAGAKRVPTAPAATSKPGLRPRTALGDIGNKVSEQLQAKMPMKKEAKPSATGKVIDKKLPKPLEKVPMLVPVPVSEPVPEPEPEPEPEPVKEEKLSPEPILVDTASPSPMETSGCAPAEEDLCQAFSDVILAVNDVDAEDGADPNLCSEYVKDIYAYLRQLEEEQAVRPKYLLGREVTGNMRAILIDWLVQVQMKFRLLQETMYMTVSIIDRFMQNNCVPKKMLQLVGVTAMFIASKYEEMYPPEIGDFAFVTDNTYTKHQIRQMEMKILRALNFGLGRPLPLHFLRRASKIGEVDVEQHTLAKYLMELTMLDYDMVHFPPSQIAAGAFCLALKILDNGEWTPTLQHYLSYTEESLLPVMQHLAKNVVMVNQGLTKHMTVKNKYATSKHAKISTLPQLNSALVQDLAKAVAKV

For the compound `CC(C)NC(=O)O[C@H]1CC[C@@H](c2cc(Nc3ccc4c(c3F)C(C)NS4(=O)=O)n[nH]2)C1` (single isomer, unassigned) [Example 51c, cis-3-(3-((4-fluoro-3-methyl-1,1-dioxido-2,3-dihydrobenzo[d]isothiazol-5-yl)amino)-1H-pyrazol-5-yl)cyclopentyl isopropylcarbamate], the IC50 – broadly, the concentration that inhibits the measured activity by half – on CDK2/Cyclin E1 is 2.1 nM; against CDK1/Cyclin B1, 106 nM.

Regarding `CC(C)NC(=O)O[C@H]1CC[C@@H](c2cc(Nc3ccc4c(c3F)C(C)NS4(=O)=O)n[nH]2)C1` (single isomer, unassigned) [Example 51d, cis-3-(3-((4-fluoro-3-methyl-1,1-dioxido-2,3-dihydrobenzo[d]isothiazol-5-yl)amino)-1H-pyrazol-5-yl)cyclopentyl isopropylcarbamate], the figures for the IC50 against CDK2/Cyclin E1 and at CDK1/Cyclin B1 were 8.7 nM and 447 nM, respectively.

For `CC1NS(=O)(=O)c2ccc(Nc3cc([C@@H]4CC[C@H](OC(=O)NC5(C)CC5)C4)[nH]n3)c(F)c21` (single isomer, unassigned) [Example 52a, cis-3-(3-((4-fluoro-3-methyl-1,1-dioxido-2,3-dihydrobenzo[d]isothiazol-5-yl)amino)-1H-pyrazol-5-yl)cyclopentyl(1-methylcyclopropyl)carbamate], the results for the IC50 against CDK2/Cyclin E1 and at CDK1/Cyclin B1 were 3.5 nM and 274 nM, respectively.

For `CC1NS(=O)(=O)c2ccc(Nc3cc([C@@H]4CC[C@H](OC(=O)NC5(C)CC5)C4)[nH]n3)c(F)c21` (single isomer, unassigned) [Example 52b, cis-3-(3-((4-fluoro-3-methyl-1,1-dioxido-2,3-dihydrobenzo[d]isothiazol-5-yl)amino)-1H-pyrazol-5-yl)cyclopentyl(1-methylcyclopropyl)carbamate], the IC50 worked out at 2.7 nM against CDK2/Cyclin E1 and 153 nM against CDK1/Cyclin B1.

As to `CC1NS(=O)(=O)c2ccc(Nc3cc([C@@H]4CC[C@H](OC(=O)NC5(C)CC5)C4)[nH]n3)c(F)c21` (single isomer, unassigned) [Example 52c, cis-3-(3-((4-fluoro-3-methyl-1,1-dioxido-2,3-dihydrobenzo[d]isothiazol-5-yl)amino)-1H-pyrazol-5-yl)cyclopentyl(1-methylcyclopropyl)carbamate], the IC50 turned out to be 1.9 nM against CDK2/Cyclin E1 and 154 nM against CDK1/Cyclin B1.

Turning to `CC1NS(=O)(=O)c2ccc(Nc3cc([C@@H]4CC[C@H](OC(=O)NC5(C)CC5)C4)[nH]n3)c(F)c21` (single isomer, unassigned) [Example 52d, cis-3-(3-((4-fluoro-3-methyl-1,1-dioxido-2,3-dihydrobenzo[d]isothiazol-5-yl)amino)-1H-pyrazol-5-yl)cyclopentyl(1-methylcyclopropyl)carbamate], the IC50 came to 1 nM at CDK2/Cyclin E1 and 56 nM against CDK1/Cyclin B1.

Consider `CCCNC(=O)O[C@H]1CC[C@@H](c2cc(Nc3ccc4c(c3F)C(C)NS4(=O)=O)n[nH]2)C1` (single isomer, unassigned) [Example 53a, cis-3-(3-((4-fluoro-3-methyl-1,1-dioxido-2,3-dihydrobenzo[d]isothiazol-5-yl)amino)-1H-pyrazol-5-yl)cyclopentyl propylcarbamate], for which the 50% inhibitory concentration (IC50) against CDK2/Cyclin E1 amounted to 6.3 nM; on CDK1/Cyclin B1 it was 367 nM.

Take `CCCNC(=O)O[C@H]1CC[C@@H](c2cc(Nc3ccc4c(c3F)C(C)NS4(=O)=O)n[nH]2)C1` (single isomer, unassigned) [Example 53b, cis-3-(3-((4-fluoro-3-methyl-1,1-dioxido-2,3-dihydrobenzo[d]isothiazol-5-yl)amino)-1H-pyrazol-5-yl)cyclopentyl propylcarbamate]: the IC50 at CDK2/Cyclin E1 amounted to 3.8 nM; at CDK1/Cyclin B1 it was 92 nM.

`CCCNC(=O)O[C@H]1CC[C@@H](c2cc(Nc3ccc4c(c3F)C(C)NS4(=O)=O)n[nH]2)C1` (single isomer, unassigned) [Example 53c, cis-3-(3-((4-fluoro-3-methyl-1,1-dioxido-2,3-dihydrobenzo[d]isothiazol-5-yl)amino)-1H-pyrazol-5-yl)cyclopentyl propylcarbamate]: the IC50 amounted to 15 nM against CDK2/Cyclin E1 and 686 nM against CDK1/Cyclin B1.

As for `CCCNC(=O)O[C@H]1CC[C@@H](c2cc(Nc3ccc4c(c3F)C(C)NS4(=O)=O)n[nH]2)C1` (single isomer, unassigned) [Example 53d, cis-3-(3-((4-fluoro-3-methyl-1,1-dioxido-2,3-dihydrobenzo[d]isothiazol-5-yl)amino)-1H-pyrazol-5-yl)cyclopentyl propylcarbamate], the values for the IC50 against CDK2/Cyclin E1 and against CDK1/Cyclin B1 were 7.1 nM and 170 nM, respectively.

`CC[C@H](C)NC(=O)O[C@H]1CC[C@@H](c2cc(Nc3ccc4c(c3F)C(C)NS4(=O)=O)n[nH]2)C1` (single isomer, unassigned) [Example 54a]: the results for the IC50 on CDK2/Cyclin E1 and against CDK1/Cyclin B1 were 1.1 nM and 309 nM, respectively.

As for `CC[C@H](C)NC(=O)O[C@H]1CC[C@@H](c2cc(Nc3ccc4c(c3F)C(C)NS4(=O)=O)n[nH]2)C1` (single isomer, unassigned) [Example 54b], the IC50 against CDK2/Cyclin E1 was determined as 2.7 nM; at CDK1/Cyclin B1, 564 nM.

`CC[C@H](C)NC(=O)O[C@H]1CC[C@@H](c2cc(Nc3ccc4c(c3F)C(C)NS4(=O)=O)n[nH]2)C1` (single isomer, unassigned) [Example 54c]: the IC50 was determined as 0.3 nM against CDK2/Cyclin E1 and 40 nM against CDK1/Cyclin B1.

In the case of `CC[C@H](C)NC(=O)O[C@H]1CC[C@@H](c2cc(Nc3ccc4c(c3F)C(C)NS4(=O)=O)n[nH]2)C1` (single isomer, unassigned) [Example 54d], the half-inhibitory concentration (IC50) against CDK2/Cyclin E1 came to 3.2 nM; at CDK1/Cyclin B1, 428 nM.

With `CC(C)NC(=O)O[C@H]1CC[C@@H](c2cc(Nc3ccc4c(c3F)CN(C3CCC3O)S4(=O)=O)n[nH]2)C1` (single isomer, unassigned) [Example 102, cis-3-(3-((4-fluoro-2-(2-hydroxycyclobutyl)-1,1-dioxido-2,3-dihydrobenzo[d]isothiazol-5-yl)amino)-1H-pyrazol-5-yl)cyclopentyl isopropylcarbamate], the IC50 against CDK2/Cyclin E1 worked out at 5.1 nM; on CDK1/Cyclin B1, 406 nM.

With `CC(C)NC(=O)O[C@H]1CC[C@@H](c2cc(Nc3ccc4c(c3F)CN(C3CCC3O)S4(=O)=O)n[nH]2)C1` (single isomer, unassigned) [Example 103, cis-3-(3-((4-fluoro-2-(2-hydroxycyclobutyl)-1,1-dioxido-2,3-dihydrobenzo[d]isothiazol-5-yl)amino)-1H-pyrazol-5-yl)cyclopentyl isopropylcarbamate], the figures for the IC50 on CDK2/Cyclin E1 and on CDK1/Cyclin B1 were 3.8 nM and 350 nM, respectively.

For `CC(C)NC(=O)O[C@H]1CC[C@@H](c2cc(Nc3ccc4c(c3F)CN(C3CC3)S4(=O)=O)n[nH]2)C1` (single isomer, unassigned) [Example 116a, cis-3-(3-((2-cyclopropyl-4-fluoro-1,1-dioxido-2,3-dihydrobenzo[d]isothiazol-5-yl)amino)-1H-pyrazol-5-yl)cyclopentyl isopropylcarbamate], the IC50 against CDK2/Cyclin E1 stood at 5.4 nM; at CDK1/Cyclin B1 it was 518 nM.

Take `CC(C)NC(=O)O[C@H]1CC[C@@H](c2cc(Nc3ccc4c(c3F)CN(C3CC3)S4(=O)=O)n[nH]2)C1` (single isomer, unassigned) [Example 116b, cis-3-(3-((2-cyclopropyl-4-fluoro-1,1-dioxido-2,3-dihydrobenzo[d]isothiazol-5-yl)amino)-1H-pyrazol-5-yl)cyclopentyl isopropylcarbamate]: the IC50 on CDK2/Cyclin E1 was 5.4 nM; at CDK1/Cyclin B1 it was 189 nM.

Turning to `CC[C@H](C)NC(=O)O[C@H]1CC[C@@H](c2cc(Nc3ccc4c(c3F)CN(C3CC3)S4(=O)=O)n[nH]2)C1` (single isomer, unassigned) [Example 117a], the IC50 against CDK2/Cyclin E1 worked out at 2.5 nM; on CDK1/Cyclin B1 it was 326 nM.

Take `CC[C@H](C)NC(=O)O[C@H]1CC[C@@H](c2cc(Nc3ccc4c(c3F)CN(C3CC3)S4(=O)=O)n[nH]2)C1` (single isomer, unassigned) [Example 117b]: the IC50 is 1.8 nM on CDK2/Cyclin E1 and 91 nM at CDK1/Cyclin B1.

In the case of `CCCNC(=O)O[C@H]1CC[C@@H](c2cc(Nc3ccc4c(c3F)CN(C3CC3)S4(=O)=O)n[nH]2)C1` (single isomer, unassigned) [Example 118a, cis-3-(3-((2-cyclopropyl-4-fluoro-1,1-dioxido-2,3-dihydrobenzo[d]isothiazol-5-yl)amino)-1H-pyrazol-5-yl)cyclopentyl propylcarbamate], the half-maximal inhibitory concentration (IC50) against CDK2/Cyclin E1 stood at 14 nM; at CDK1/Cyclin B1, 395 nM.

On to `CCCNC(=O)O[C@H]1CC[C@@H](c2cc(Nc3ccc4c(c3F)CN(C3CC3)S4(=O)=O)n[nH]2)C1` (single isomer, unassigned) [Example 118b, cis-3-(3-((2-cyclopropyl-4-fluoro-1,1-dioxido-2,3-dihydrobenzo[d]isothiazol-5-yl)amino)-1H-pyrazol-5-yl)cyclopentyl propylcarbamate], for which the IC50 against CDK2/Cyclin E1 turned out to be 8 nM; on CDK1/Cyclin B1, 168 nM.

`CC1(NC(=O)O[C@H]2CC[C@@H](c3cc(Nc4ccc5c(c4F)CN(C4CC4)S5(=O)=O)n[nH]3)C2)CC1` (single isomer, unassigned) [Example 119a, cis-3-(3-((2-cyclopropyl-4-fluoro-1,1-dioxido-2,3-dihydrobenzo[d]isothiazol-5-yl)amino)-1H-pyrazol-5-yl)cyclopentyl(1-methylcyclopropyl)carbamate]: the IC50 was found to be 2.5 nM against CDK2/Cyclin E1 and 216 nM on CDK1/Cyclin B1.

For the compound `CC1(NC(=O)O[C@H]2CC[C@@H](c3cc(Nc4ccc5c(c4F)CN(C4CC4)S5(=O)=O)n[nH]3)C2)CC1` (single isomer, unassigned) [Example 119b, cis-3-(3-((2-cyclopropyl-4-fluoro-1,1-dioxido-2,3-dihydrobenzo[d]isothiazol-5-yl)amino)-1H-pyrazol-5-yl)cyclopentyl(1-methylcyclopropyl)carbamate], the figures for the IC50 against CDK2/Cyclin E1 and against CDK1/Cyclin B1 were 1.9 nM and 114 nM, respectively.
